Results as given in PMC10111164, “Artemis inhibition as a therapeutic strategy for acute lymphoblastic leukemia” (Frontiers in Cell and Developmental Biology, 2023).

How the values were obtained:
[1] = test system: Primary patient-derived B-ALL cells (BLQ5, LAX56, and LAX7R); experiment: Proliferation of GFP-labeled B-ALL cells on OP9 cells (Incucyte green fluorescence); assay type: cell-based, human
Procedure: (§1) Lentivirally green fluorescence protein (GFP) labeled patient-derived B-ALL cells (LAX56, BLQ5, LAX7R) or mature B cell lines 3301015 and 5680001 were plated on irradiated murine stromal OP9 cells and treated with four compounds optimized for Artemis inhibition (827171, 827032, 826941, 825226) (provided by Curia Global Inc., as part of the NCI NExT Program). These compounds ranged in KD binding affinity to Artemis from 20 to 150 nM. […] Proliferation was determined by measuring the green fluorescence intensity per image (9 images were captured per well) by Incucyte every 8 h for 3 days. Raw values were normalized to the zero-time DMSO control. On day 3, viability of the treated cells was determined by annexin V/DAPI staining via flow cytometry.
Based on these viability studies, we next tested the compounds for their effect on proliferation. […] Ideally, normal B-cell lines would continue to proliferate upon Artemis inhibition and only B-ALL cell lines would be inhibited due to chromosome breaks. […] Increasing green fluorescence intensity is indicative of proliferation as measured by Incucyte every 8 h. […]
Primary B-ALL cells (BLQ5, LAX56, and LAX7R) were transduced with GFP, and 100,000 cells were plated in 24-well plates seeded with irradiated OP9 cells. […] Green fluorescence intensity was measured by Incucyte every 8 h. […]

[2] = test system: Mature B cell lines (3301015 and 5680001); experiment: Proliferation of GFP-labeled mature B cell lines on OP9 cells (Incucyte green fluorescence); assay type: cell-based, human
Procedure: as §1
Based on these viability studies, we next tested the compounds for their effect on proliferation. […] Ideally, normal B-cell lines would continue to proliferate upon Artemis inhibition and only B-ALL cell lines would be inhibited due to chromosome breaks. Primary patient-derived B-ALL cells (BLQ5, LAX56, and LAX7R) were transduced with GFP and 100,000 cells were plated in 24-well plates seeded with irradiated OP9 cells. Increasing green fluorescence intensity is indicative of proliferation as measured by Incucyte every 8 h. […] The mature B cell line proliferation is slow enough that it appears relatively flat in the proliferation assays, but the cells do increase in number (Supplementary Figure S2). Compared to B-ALL cells which grow as single cells (Supplementary Figure S3A–F), the mature B-cell lines grow in clusters and the measurement of total intensity per image is a potential caveat and may not capture this growth (Supplementary Figure S3G–J).
Mature B cell lines (3301015 and 5680001) were transduced with GFP, and 100,000 cells were plated in 24-well plates seeded with irradiated OP9 cells. […] Green fluorescence intensity was measured by Incucyte every 8 h. Raw values were normalized to the 0 h DMSO control. The dashed lines indicate the mean of the final time point measurements of the DMSO control for each mature B cell line.

[3] = test system: patient-derived B-ALL cells (BLQ5, LAX56 and LAX7R); experiment: Viability of B-ALL cells by annexin V/DAPI flow cytometry, day 3; assay type: cell-based, human; settings: all three B-ALL cells (BLQ5, LAX56, LAX7R), 3 days
Procedure: as §1
On day three, primary B-ALL cells were collected and used for flow cytometry analysis with PE Annexin V and DAPI to measure % viability (PE Annexin V-/DAPI-). The statistical analysis of viability differences is compared to DMSO control: ns: non-significant; *p < 0.05; **p < 0.001; ***p < 0.0001, one-way ANOVA.

[4] = test system: Normal mature B cell lines 3301015 and 5680001; experiment: Viability of normal mature B cell lines by annexin V/DAPI flow cytometry, day 3; assay type: cell-based, human; settings: one or both B-cell lines, 1–20 μM, 3 days
Procedure: Normal mature human B cell lines, immortalized lymphoblastoid cell lines 3301015 and 5680001, were generated using EBV-transformation of peripheral blood from patients with no hematopoietic abnormalities.
as §1
FIGURE 4 Artemis inhibitors and DNA-PK inhibitors effect on viability of normal mature B cell lines. […] On day three, mature B cells were collected and used for flow cytometry analysis with PE Annexin V and DAPI to measure % viability (PE Annexin V-/DAPI-). The % viability (Ann V-/DAPI-) is depicted. […]

[5] = target: T1, purified full-length human Artemis with DNA-PKcs (Homo sapiens, UniProt Q96SD1); experiment: Biochemical Artemis catalytic activity assay (FAM hairpin DNA cleavage, fluorescence)
T1 construct: Artemis activity assay was developed using full length Artemis with DNA-PKcs; made in house
T1 sequence (Q96SD1 whole entry): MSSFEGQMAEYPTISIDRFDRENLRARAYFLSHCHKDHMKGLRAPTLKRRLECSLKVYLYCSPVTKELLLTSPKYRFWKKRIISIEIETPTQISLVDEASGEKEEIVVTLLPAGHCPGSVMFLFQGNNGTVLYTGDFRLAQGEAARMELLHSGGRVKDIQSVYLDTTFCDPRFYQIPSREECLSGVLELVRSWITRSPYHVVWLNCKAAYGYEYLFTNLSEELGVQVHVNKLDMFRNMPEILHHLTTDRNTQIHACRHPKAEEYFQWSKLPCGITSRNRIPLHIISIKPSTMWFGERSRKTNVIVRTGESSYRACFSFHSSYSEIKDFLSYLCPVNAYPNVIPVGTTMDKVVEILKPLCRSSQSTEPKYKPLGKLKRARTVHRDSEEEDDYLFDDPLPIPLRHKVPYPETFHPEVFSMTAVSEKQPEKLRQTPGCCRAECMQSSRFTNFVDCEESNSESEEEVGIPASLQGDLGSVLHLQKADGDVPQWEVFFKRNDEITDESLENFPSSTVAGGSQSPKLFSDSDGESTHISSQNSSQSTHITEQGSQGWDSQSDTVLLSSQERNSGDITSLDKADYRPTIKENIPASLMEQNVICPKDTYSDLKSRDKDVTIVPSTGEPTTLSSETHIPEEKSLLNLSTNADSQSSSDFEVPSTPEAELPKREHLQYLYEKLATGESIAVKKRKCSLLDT
T1 sequence (P78527 whole entry partner): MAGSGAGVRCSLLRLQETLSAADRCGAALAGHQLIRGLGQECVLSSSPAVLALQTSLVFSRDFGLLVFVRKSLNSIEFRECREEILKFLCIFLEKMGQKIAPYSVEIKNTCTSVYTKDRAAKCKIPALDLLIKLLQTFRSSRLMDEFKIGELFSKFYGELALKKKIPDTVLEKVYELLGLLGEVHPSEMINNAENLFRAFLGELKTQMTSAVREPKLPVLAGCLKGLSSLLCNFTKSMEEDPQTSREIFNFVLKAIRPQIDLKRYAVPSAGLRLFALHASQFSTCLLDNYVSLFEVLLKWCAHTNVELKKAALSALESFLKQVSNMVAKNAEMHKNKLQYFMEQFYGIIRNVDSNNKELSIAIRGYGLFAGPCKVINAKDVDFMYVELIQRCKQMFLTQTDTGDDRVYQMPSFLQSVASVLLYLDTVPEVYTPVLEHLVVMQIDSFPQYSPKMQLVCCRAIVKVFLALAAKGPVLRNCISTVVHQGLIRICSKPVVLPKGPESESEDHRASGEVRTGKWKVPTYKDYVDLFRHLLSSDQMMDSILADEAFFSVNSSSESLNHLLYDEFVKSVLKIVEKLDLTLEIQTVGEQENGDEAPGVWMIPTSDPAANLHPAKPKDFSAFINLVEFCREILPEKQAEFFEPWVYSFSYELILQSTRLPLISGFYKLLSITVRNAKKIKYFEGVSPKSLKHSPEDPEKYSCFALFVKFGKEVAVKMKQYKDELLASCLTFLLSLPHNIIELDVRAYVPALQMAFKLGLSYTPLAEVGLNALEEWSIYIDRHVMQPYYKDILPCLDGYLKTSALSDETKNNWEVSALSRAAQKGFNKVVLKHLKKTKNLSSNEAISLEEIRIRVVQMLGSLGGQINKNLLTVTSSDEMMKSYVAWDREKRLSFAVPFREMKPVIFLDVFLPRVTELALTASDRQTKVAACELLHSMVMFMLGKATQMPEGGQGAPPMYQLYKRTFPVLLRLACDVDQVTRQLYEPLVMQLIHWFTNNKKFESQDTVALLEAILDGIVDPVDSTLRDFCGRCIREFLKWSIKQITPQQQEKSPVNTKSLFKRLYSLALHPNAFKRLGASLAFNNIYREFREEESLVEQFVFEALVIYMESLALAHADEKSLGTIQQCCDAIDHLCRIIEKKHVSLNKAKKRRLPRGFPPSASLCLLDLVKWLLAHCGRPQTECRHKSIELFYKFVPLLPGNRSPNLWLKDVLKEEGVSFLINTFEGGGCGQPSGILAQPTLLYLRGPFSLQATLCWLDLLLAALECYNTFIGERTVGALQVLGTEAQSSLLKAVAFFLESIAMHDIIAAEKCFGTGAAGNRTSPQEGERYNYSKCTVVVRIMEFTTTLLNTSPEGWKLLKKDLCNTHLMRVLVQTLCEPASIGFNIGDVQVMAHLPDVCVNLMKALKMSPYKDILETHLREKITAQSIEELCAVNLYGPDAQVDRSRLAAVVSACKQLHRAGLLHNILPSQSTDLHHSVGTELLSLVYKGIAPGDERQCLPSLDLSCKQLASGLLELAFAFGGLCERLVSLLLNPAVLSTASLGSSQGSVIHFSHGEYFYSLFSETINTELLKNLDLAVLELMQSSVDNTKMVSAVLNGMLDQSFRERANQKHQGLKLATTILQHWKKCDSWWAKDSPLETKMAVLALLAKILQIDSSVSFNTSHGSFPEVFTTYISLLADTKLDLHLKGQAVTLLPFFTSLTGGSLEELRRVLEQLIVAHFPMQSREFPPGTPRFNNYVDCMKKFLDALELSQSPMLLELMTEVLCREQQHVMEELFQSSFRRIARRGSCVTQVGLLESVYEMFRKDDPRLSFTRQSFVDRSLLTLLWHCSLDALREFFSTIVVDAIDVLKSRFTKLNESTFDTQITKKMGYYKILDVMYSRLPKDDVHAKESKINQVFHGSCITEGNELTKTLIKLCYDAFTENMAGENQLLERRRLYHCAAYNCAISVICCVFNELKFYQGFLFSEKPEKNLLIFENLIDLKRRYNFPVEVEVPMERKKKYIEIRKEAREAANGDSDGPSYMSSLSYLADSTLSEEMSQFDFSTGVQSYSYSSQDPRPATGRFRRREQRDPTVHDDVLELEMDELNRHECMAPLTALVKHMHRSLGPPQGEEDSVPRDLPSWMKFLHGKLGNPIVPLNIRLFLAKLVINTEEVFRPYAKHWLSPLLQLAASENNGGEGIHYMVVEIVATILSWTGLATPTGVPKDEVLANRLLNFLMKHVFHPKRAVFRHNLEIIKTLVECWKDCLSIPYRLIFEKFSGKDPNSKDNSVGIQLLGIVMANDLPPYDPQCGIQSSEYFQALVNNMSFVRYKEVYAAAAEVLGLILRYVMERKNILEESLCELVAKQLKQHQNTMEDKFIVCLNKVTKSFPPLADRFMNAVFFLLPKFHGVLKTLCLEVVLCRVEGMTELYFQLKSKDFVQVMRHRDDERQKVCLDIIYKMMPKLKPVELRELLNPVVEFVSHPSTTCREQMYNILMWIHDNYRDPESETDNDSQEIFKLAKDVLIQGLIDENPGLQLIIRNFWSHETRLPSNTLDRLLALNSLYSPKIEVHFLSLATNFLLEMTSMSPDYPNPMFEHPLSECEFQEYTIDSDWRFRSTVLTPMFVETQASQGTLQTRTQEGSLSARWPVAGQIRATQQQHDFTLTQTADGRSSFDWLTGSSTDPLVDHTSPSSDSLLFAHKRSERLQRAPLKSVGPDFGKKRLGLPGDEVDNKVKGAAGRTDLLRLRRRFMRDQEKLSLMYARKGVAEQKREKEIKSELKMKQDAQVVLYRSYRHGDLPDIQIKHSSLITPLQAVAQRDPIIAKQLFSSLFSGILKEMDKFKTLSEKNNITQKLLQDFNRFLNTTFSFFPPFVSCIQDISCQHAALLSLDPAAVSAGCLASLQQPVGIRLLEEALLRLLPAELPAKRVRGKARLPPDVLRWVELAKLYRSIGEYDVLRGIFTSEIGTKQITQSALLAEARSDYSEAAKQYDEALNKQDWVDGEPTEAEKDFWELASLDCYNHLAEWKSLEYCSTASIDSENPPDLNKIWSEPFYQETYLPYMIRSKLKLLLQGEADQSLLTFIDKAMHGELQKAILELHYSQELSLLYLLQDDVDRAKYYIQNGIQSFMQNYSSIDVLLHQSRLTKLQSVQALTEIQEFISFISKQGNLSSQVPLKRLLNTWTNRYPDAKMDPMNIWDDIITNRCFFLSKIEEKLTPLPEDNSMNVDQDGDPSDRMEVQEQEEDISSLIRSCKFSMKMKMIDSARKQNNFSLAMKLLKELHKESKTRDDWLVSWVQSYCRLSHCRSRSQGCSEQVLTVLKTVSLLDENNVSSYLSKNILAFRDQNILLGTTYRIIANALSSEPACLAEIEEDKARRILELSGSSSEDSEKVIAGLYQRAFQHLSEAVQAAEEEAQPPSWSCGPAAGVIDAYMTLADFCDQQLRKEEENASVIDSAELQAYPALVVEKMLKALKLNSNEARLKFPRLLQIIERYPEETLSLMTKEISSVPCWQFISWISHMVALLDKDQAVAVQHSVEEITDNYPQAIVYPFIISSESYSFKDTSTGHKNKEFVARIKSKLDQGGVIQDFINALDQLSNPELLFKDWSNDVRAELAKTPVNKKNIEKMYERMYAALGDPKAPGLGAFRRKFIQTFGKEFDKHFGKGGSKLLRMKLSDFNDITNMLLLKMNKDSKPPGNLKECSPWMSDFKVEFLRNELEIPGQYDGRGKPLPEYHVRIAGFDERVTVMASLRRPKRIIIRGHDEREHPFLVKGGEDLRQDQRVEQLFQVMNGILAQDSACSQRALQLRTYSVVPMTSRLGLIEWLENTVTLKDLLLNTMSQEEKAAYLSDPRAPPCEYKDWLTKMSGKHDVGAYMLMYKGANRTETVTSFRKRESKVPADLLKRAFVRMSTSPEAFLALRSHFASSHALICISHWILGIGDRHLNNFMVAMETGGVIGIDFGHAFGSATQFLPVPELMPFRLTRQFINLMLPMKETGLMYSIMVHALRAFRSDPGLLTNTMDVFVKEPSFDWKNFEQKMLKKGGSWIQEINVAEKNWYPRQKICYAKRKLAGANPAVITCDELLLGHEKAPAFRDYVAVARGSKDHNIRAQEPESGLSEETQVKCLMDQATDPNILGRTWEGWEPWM
Procedure: Artemis activity assay was developed using full length Artemis with DNA-PKcs to generate a fluorescent signal from the cleavage of the 5′ 6-FAM modified end of hairpin DNA with a black-hole quencher (3-BHQ) on the 3’ end. The assay buffer used was 25 mM MOPS, pH 7.5, 10 mM MgCl2, 10 mM KCl, 10 μM ATP, 1 mM DTT, 0.05% (w/v) CHAPS with 5 nM FL-Artemis, 5 nM DNA-PKcs, and 200 nM DNA FAM hairpin substrate. The fluorescence signal was monitored kinetically on a Perkin Elmer Envision microplate reader with FITC filters (λ ex = 485 nm, λ em = 520 nm) with 1-min reads for 40 min.
We determined the specificity of the four Artemis inhibiting compounds using a biochemical Artemis activity assay which generates a fluorescent signal from the cleavage of the 5′ 6-FAM modified end of hairpin DNA with a black-hole quencher (3-BHQ) on the 3’ end.
Steps 1, 2, and 3 show the fluorescence assay for cutting of the DNA hairpin substrate by Artems:DNA-Kcs. Artemis activity assay was optimized for development of a fluorescent signal from the cleavage of the 6-FAM modified end of hairpin DNA (to release it from proximity to the BHQ quenching) and monitored kinetically on a Perkin Elmer Envision microplate reader with FITC filters (excitation wavelength = 485 nm, emission wavelength = 520 nm). […]

SMILES	proliferation (normalized green fluorescence intensity) vs DMSO ([1]; B-ALL cell lines, 5 μM and 10 μM)	proliferation of the three B-ALL lines (Discussion summary) ([1]; three B-ALL lines, 827171 at 1, 5, and 10 µM)	proliferation (normalized green fluorescence intensity) vs DMSO ([2]; 3301015, 5 μM and 10 µM)	proliferation (normalized green fluorescence intensity) vs DMSO [2]; 5680001	proliferation (normalized green fluorescence intensity) vs DMSO ([2]; 5680001, 1 or 5 μM)	viability (PE Annexin V-/DAPI-) compared to DMSO controls [3]	viability (PE Annexin V-/DAPI-) [4]	IC50 ([5]; 5 nM FL-Artemis, 5 nM DNA-PKcs, 200 nM DNA FAM hairpin substrate, 10 μM ATP, 10-point concentration response)	%Inh at Max ([5]; percent inhibition at maximal tested concentration)
Cc1cc2ncnn2cc1Nc1ncc2c(n1)n(C1CCOCC1)c(=O)n2C [AZD7648]	inhibited the proliferation	little inhibition	suppressed proliferation	no significant decreases in proliferation	minor increase in proliferation	decrease in viability	decrease viability of one or both B-cell lines		
COc1ccc([C@@H](O)c2cc(-c3ncnc4cc(N5CCOCC5)ccc34)c(F)cc2Cl)nn1 [M3814]								3 nM	90.2%
